Reference: ChEMBL document CHEMBL3868595, “Plazomicin is effective in a non-human primate pneumonic plague model” (Bioorg Med Chem, 2016)

Key:
Yersinia pestis [1] = test: Antibacterial activity against Yersinia pestis Colorado 92 infected in African green monkey B6861 model assessed as bacterial burden in tracheobronchial lymph nodes at 6.25 mg/kg, iv administered within 6 hrs post onset of sustained fever as 30 mins infusion for 5 days (reference value: 7.7 10^9CFU/g); type: functional, CO92, Lymph node
African green monkey [2] = test: Toxicity in African green monkey B6127 model infected with Yersinia pestis Colorado 92 assessed as dehydration at 25 mg/kg, iv administered within 6 hrs post onset of sustained fever as 30 mins infusion for 10 days; type: organism-based; settings: chlorocebus sabaeus, in vivo
African green monkey [3] = test: Toxicity in African green monkey B6291 model infected with Yersinia pestis Colorado 92 assessed as serum lactate dehydrogenase level at 25 mg/kg, iv administered within 6 hrs post onset of sustained fever as 30 mins infusion for 10 days (reference value: 212 IU/L); type: organism-based; settings: chlorocebus sabaeus, in vivo
Yersinia pestis [4] = test: Antibacterial activity against Yersinia pestis Colorado 92 infected in African green monkey B6436 model assessed as bacterial burden in lung at 25 mg/kg, iv administered within 6 hrs post onset of sustained fever as 30 mins infusion for 5 days (reference value: 7.7 10^8CFU/g); type: functional, CO92
[5] = Toxicity in African green monkey 8067 model infected with Yersinia pestis Colorado 92 assessed as total white blood cell count at 25 mg/kg, iv administered within 6 hrs post onset of sustained fever as 30 mins infusion for 10 days (reference value: 10 10^3/microL); type: organism-based; settings: chlorocebus aethiops, in vivo
Yersinia pestis [6] = test: Antibacterial activity against Yersinia pestis Colorado 92 infected in African green monkey B6988 model assessed as bacterial burden in blood at 6.25 mg/kg, iv administered within 6 hrs post onset of sustained fever as 30 mins infusion for 5 days (reference value: 1.2 10^7CFU/ml); type: functional, CO92
African green monkey [7] = test: Toxicity in African green monkey B5994 model infected with Yersinia pestis Colorado 92 assessed as serum gamma glutamyl-transferase level at 25 mg/kg, iv administered within 6 hrs post onset of sustained fever as 30 mins infusion for 10 days (reference value: 35 IU/L); type: organism-based; settings: chlorocebus sabaeus, in vivo
African green monkey [8] = test: Toxicity in African green monkey 7643 model infected with Yersinia pestis Colorado 92 assessed as serum lactate dehydrogenase level at 25 mg/kg, iv administered within 6 hrs post onset of sustained fever as 30 mins infusion for 10 days (reference value: 278 IU/L); type: organism-based; settings: chlorocebus sabaeus, in vivo
Yersinia pestis [9] = test: Antibacterial activity against Yersinia pestis Colorado 92 infected in African green monkey C2149 model assessed as bacterial burden in spleen at 6.25 mg/kg, iv administered within 6 hrs post onset of sustained fever as 30 mins infusion for 5 days (reference value: 1.6 10^9CFU/g); type: functional, CO92
Yersinia pestis [10] = test: Antibacterial activity against Yersinia pestis Colorado 92 infected in African green monkey B6988 model assessed as bacterial burden in spleen at 6.25 mg/kg, iv administered within 6 hrs post onset of sustained fever as 30 mins infusion for 5 days (reference value: 1.6 10^9CFU/g); type: functional, CO92
Yersinia pestis [11] = test: Antibacterial activity against Yersinia pestis Colorado 92 infected in African green monkey B6889 model assessed as bacterial burden in brain at 6.25 mg/kg, iv administered within 6 hrs post onset of sustained fever as 30 mins infusion for 5 days (reference value: 1.9 10^6CFU/g); type: functional, CO92
African green monkey [12] = test: Toxicity in African green monkey B6428 model infected with Yersinia pestis Colorado 92 assessed as serum gamma glutamyl-transferase level at 25 mg/kg, iv administered within 6 hrs post onset of sustained fever as 30 mins infusion for 10 days (reference value: 31 IU/L); type: organism-based; settings: chlorocebus sabaeus, in vivo
Yersinia pestis [13] = test: Antibacterial activity against Yersinia pestis Colorado 92 infected in African green monkey 8047 model assessed as bacterial burden in liver at 6.25 mg/kg, iv administered within 6 hrs post onset of sustained fever as 30 mins infusion for 10 days (reference value: 5.2 10^8CFU/g); type: functional, CO92
African green monkey [14] = test: Toxicity in African green monkey B6127 model infected with Yersinia pestis Colorado 92 assessed as tubule damage at 25 mg/kg, iv administered within 6 hrs post onset of sustained fever as 30 mins infusion for 10 days by hematoxylin staining based assay; type: organism-based; settings: chlorocebus sabaeus, in vivo
African green monkey [15] = test: Toxicity in African green monkey 8067 model infected with Yersinia pestis Colorado 92 assessed as serum gamma glutamyl-transferase level at 25 mg/kg, iv administered within 6 hrs post onset of sustained fever as 30 mins infusion for 10 days (reference value: 40 IU/L); type: organism-based; settings: chlorocebus sabaeus, in vivo
Yersinia pestis [16] = test: Antibacterial activity against Yersinia pestis Colorado 92 infected in African green monkey 8047 model assessed as bacterial burden in heart at 6.25 mg/kg, iv administered within 6 hrs post onset of sustained fever as 30 mins infusion for 10 days (reference value: 2.6 10^7CFU/g); type: functional, CO92
Yersinia pestis [17] = test: Antibacterial activity against Yersinia pestis Colorado 92 infected in African green monkey B6873 model assessed as bacterial burden in heart at 12.5 mg/kg, iv administered within 6 hrs post onset of sustained fever as 30 mins infusion for 5 days (reference value: 2.6 10^7CFU/g); type: functional, organism-based; settings: CO92
African green monkey [18] = test: Toxicity in African green monkey B6140 model infected with Yersinia pestis Colorado 92 assessed as serum alanine aminotransferase level at 25 mg/kg, iv administered within 6 hrs post onset of sustained fever as 30 mins infusion for 10 days (reference value: 180 IU/L); type: organism-based; settings: chlorocebus sabaeus, in vivo
Yersinia pestis [19] = test: Antibacterial activity against Yersinia pestis Colorado 92 infected in African green monkey B6988 model assessed as bacterial burden in brain at 6.25 mg/kg, iv administered within 6 hrs post onset of sustained fever as 30 mins infusion for 5 days (reference value: 1.9 10^6CFU/g); type: functional, CO92
Yersinia pestis [20] = test: Antibacterial activity against Yersinia pestis Colorado 92 infected in African green monkey C2083 model assessed as bacterial burden in blood at 12.5 mg/kg, iv administered within 6 hrs post onset of sustained fever as 30 mins infusion for 5 days (reference value: 1.2 10^7CFU/ml); type: functional, CO92
African green monkey [21] = test: Toxicity in African green monkey B6428 model infected with Yersinia pestis Colorado 92 assessed as blood urea nitrogen level at 25 mg/kg, iv administered within 6 hrs post onset of sustained fever as 30 mins infusion for 10 days (reference value: 16 mg/dl); type: organism-based; settings: chlorocebus sabaeus, in vivo
Yersinia pestis [22] = test: Antibacterial activity against Yersinia pestis Colorado 92 infected in African green monkey B6872 model assessed as bacterial burden in tracheobronchial lymph nodes at 25 mg/kg, iv administered within 6 hrs post onset of sustained fever as 30 mins infusion for 5 days (reference value: 7.7 10^9CFU/g); type: functional, organism-based; settings: CO92, Lymph node
Yersinia pestis [23] = test: Antibacterial activity against Yersinia pestis Colorado 92 infected in African green monkey B6106 model assessed as bacterial burden in blood at 25 mg/kg, iv administered within 6 hrs post onset of sustained fever as 30 mins infusion for 5 days (reference value: 1.2 10^7CFU/ml); type: functional, CO92
Yersinia pestis [24] = test: Antibacterial activity against Yersinia pestis Colorado 92 infected in African green monkey B6873 model assessed as bacterial burden in brain at 12.5 mg/kg, iv administered within 6 hrs post onset of sustained fever as 30 mins infusion for 5 days (reference value: 1.9 10^6CFU/g); type: functional, CO92
[25] = Volume of distribution at steady state in African green monkey blood at 35 mg/kg administered as iv infusion twice daily for 7 consecutive days measured on day 1 by LC-MS/MS analysis; type: ADME, organism-based; settings: chlorocebus aethiops, read-out: Vdss

CN[C@@H]1[C@@H](O)[C@@H](O[C@@H]2[C@@H](O)[C@H](O[C@H]3OC(CNCCO)=CC[C@H]3N)[C@@H](N)C[C@H]2NC(=O)[C@@H](O)CCN)OC[C@]1(C)O [PLAZOMICIN]
Activity (Yersinia pestis [1]): 1.2 ×10⁸ CFU/g
Activity (African green monkey [2]): Toxic
Activity (African green monkey [3]): 259 IU/L
Activity (Yersinia pestis [4]): 44 CFU/g
Activity [5]: 9.4 ×10³ /uL
Activity (Yersinia pestis [6]): 11 CFU/ml
Activity (African green monkey [7]): 38 IU/L
Activity (African green monkey [8]): 606 IU/L
Activity (Yersinia pestis [9]): 30 CFU/g
Activity (Yersinia pestis [10]): 17 CFU/g
Activity (Yersinia pestis [11]): 80 CFU/g
Activity (African green monkey [12]): 27 IU/L
Activity (Yersinia pestis [13]): 1.3 ×10⁶ CFU/g
Activity (African green monkey [14]): Toxic
Activity (African green monkey [15]): 26 IU/L
Activity (Yersinia pestis [16]): 2 ×10⁷ CFU/g
Activity (Yersinia pestis [17]): Below limit of detection
Activity (African green monkey [18]): 71 IU/L
Activity (Yersinia pestis [19]): 11 CFU/g
Activity (Yersinia pestis [20]): 24 CFU/ml
Activity (African green monkey [21]): 26 mg/dL
Activity (Yersinia pestis [22]): Below limit of detection
Activity (Yersinia pestis [23]): 40 CFU/ml
Activity (Yersinia pestis [24]): 44 CFU/g
Vd [25]: 0.26 L/kg
